Legend:
Caco-2 cell monolayers = experiment: Caco-2 permeability assay; assay type: in vitro ADME, human
Text: Caco-2 cells are commonly used in a confluent monolayer on a cell culture insert filter. When cultured in this format and under specific conditions, the cells become differentiated and polarized such that their phenotype, morphologically and functionally resembles the enterocytes lining the small intestine. The cell monolayer provides a physical and biochemical barrier to the passage of small molecules, and is widely used across the pharmaceutical industry as an in vitro model of the human small intestinal mucosa to predict the absorption of orally administered drugs (Hidalgo et al., Gastroenterology, 1989; Artursson, J. Pharm. Sci., 1990). The correlation between the in vitro apparent permeability (P ? app) across Caco-2 monolayers and the in vivo absorption is well established (Artursson et al., Biochem. Biophys. Res. Comm., 1991).
The present assay was used to determine the bidirectional permeability of the compounds of the invention through Caco-2 cell monolayers. Caco-2 cells were grown in confluent monolayers where the media of both the apical (A) and basolateral (B) sides were at pH 7.4. Compounds were dosed at 1 μM in the presence of 200 μM Lucifer Yellow, on the apical side (A→B) or the basolateral side (B→A) for assessment, in duplicate.
The absorption potential of compounds were classified as either Low (P-app<1×10^−6 cm/s) or High (P-app>1×10^−6 cm/s).

P493-6 (myc "on") cells = experiment: Cell proliferation assay; assay type: cell-based; conditions: P493-6, 72 h, read-out: Cell prolif P493 72 h IC50
Procedure: P493-6 (myc “on”) cells were maintained in growth media (RPMI-1640, 10% FBS, 2 mM glutamine, 100 units/ml Penicillin and 100 μg/ml streptomycin) at 37° C. with 5% CO2. For compound assay, P493-6 cells were plated in 96-well V-bottom plates on the day of compound addition in 50 μl of growth media at a cell density of 200,000 cells/ml (10,000 cells/well). Compounds were serially diluted in 100% DMSO at 200-times the final concentration. Compounds were diluted 100-fold into growth media and then 50 μl of this mixture was added to cell plates making the final concentration of DMSO 0.5%. Cells were incubated with compound for 72 hrs at 37° C. with 5% CO2 and analyzed for antiproliferative effects either by Cell Titer Glo (Promega) or FACS analysis using the Viacount (Millipore) kit on the Guava instrument.

[1] = Pharmacokinetic studies in mice; assay type: in vivo; conditions: female, CD-1, mouse, plasma, po, 50 mg/kg, 50 mg/kg oral
Procedure: For PK studies performed in mice, female CD-1 mice, age 5-8 weeks, were dosed orally by gavage (10 mL/kg volume) with test compounds. At pre-determined time-points (e.g. 1, 3, and 6 hrs) post-dosing, groups of three mice were sacrificed by CO2 inhalation and blood collected via cardiac puncture. Blood samples were placed into K2 EDTA coated tubes and kept on ice. Samples were centrifuged at 2000×g for 10 minutes at 4° C. and plasma isolated. Plasma was stored at ˜70° C. until bioanalytical analysis.
(§1) The plasma samples were analyzed using Liquid chromatography tandem mass spectrometry (LC/MS/MS) methods. Frozen plasma samples were thawed on ice or room temperature. Aliquotes of study plasma samples and calibration samples prepared in the same matrix as the study samples were quenched in an organic solvent (methanol, acetonitrole or DMF) containing an internal standard. The mixtures were then centrifuged and filtered and the filtrates were injected to an LC/MS/MS system to determine concentrations of test compounds.

[2] = Pharmacokinetic studies in rats; assay type: in vivo; conditions: female, Sprague-Dawley, plasma; Rat, 50 mg/kg oral, Eudragit L100-55 solid dispersion, Suspension
Procedure: For PK studies performed in rats, groups of three female Sprague-Dawley Rats, age 7-10 weeks, with jugular vein cannulae were dosed orally by gavage (5-10 mL/kg) with test compounds. Serial blood samples were collected via the jugular vein cannulae at multiple time-points pre and post-dose. Blood samples were placed into K2 EDTA coated tubes on kept on ice. Samples were centrifuged at 2500×g for 10 minutes at 4° C. and plasma isolated. Plasma was stored at ˜70° C. until bioanalytical analysis.
as §1

[3] = Eudragit L100-55 solid dispersion, Suspension

What does the source list for CC(C)(C)OC(=O)NCc1cccc(CC(=O)Nc2nnc(CCCCc3ccc(NC(=O)Cc4ccccc4)nn3)s2)c1 [Compound 339]?
Significant Efflux (Caco-2 cell monolayers): Yes (efflux ratios being significant when greater than or equal to 3 when the Papp (B→A) was greater than or equal to 1×10^−6 cm/s); IC50 (P493-6 (myc "on") cells): 9 nM

For O=C(Cc1cccc(OC(F)(F)F)c1)Nc1ccc(CCCCc2nnc(NC(=O)Cc3ccccc3)s2)nn1 [Compound 585], which “Significant Efflux” value (Caco-2 cell monolayers) is on record?
The value was “Yes (efflux ratios being significant when greater than or equal to 3 when the Papp (B→A) was greater than or equal to 1×10^−6 cm/s)”.

What about the Cmax ([1]; 1% NMP/99% Gelucire, Solution) of the same compound?
Its Cmax is 5160 nM.

And the Tmax ([1]; 1% NMP/99% Gelucire, Solution)?
Its Tmax is 1 h.

What about the Cmax [1, 3] of the same compound?
The Cmax was 930 nM.

What about the Tmax [1, 3] of the same compound?
The Tmax was 3 h.

What about the Cmax [2] of the same compound?
The Cmax was 1150 nM.

And the Tmax [2]?
The Tmax was 2 h.

What about the IC50 (P493-6 (myc "on") cells) of the same compound?
The IC50 was 70 nM.

With O=C(Cc1ccccc1)Nc1ccc(CCCCc2nnc(NC(=O)C(O)c3cccc(Cl)c3)s2)nn1 (centres unmarked) [Compound 318] as the compound, how does the “Significant Efflux” value (Caco-2 cell monolayers) read?
Its value is “Yes (efflux ratios being significant when greater than or equal to 3 when the Papp (B→A) was greater than or equal to 1×10^−6 cm/s)”.

What about the Cmax ([1]; 0.5% CMC/0.1% PS80, Suspension) of the same compound?
Its Cmax is 10 nM.

And the Tmax ([1]; 0.5% CMC/0.1% PS80, Suspension)?
Its Tmax is 1 h.

What about the Cmax ([1]; Capryol PGMC, Suspension) of the same compound?
Its Cmax is 80 nM.

What about the Tmax ([1]; Capryol PGMC, Suspension) of the same compound?
The Tmax was 3 h.

What about the IC50 (P493-6 (myc "on") cells) of the same compound?
The IC50 was 17 nM.

For O=C(Cc1cccc(OC(F)(F)F)c1)Nc1ccc(CCCCc2nnc(NC(=O)Cc3cccc(OC(F)(F)F)c3)s2)nn1 [Compound 660], which “Significant Efflux” value (Caco-2 cell monolayers) is on record?
The value was “Yes (efflux ratios being significant when greater than or equal to 3 when the Papp (B→A) was greater than or equal to 1×10^−6 cm/s)”.

And the IC50 (P493-6 (myc "on") cells)?
Its IC50 is 37 nM.

Which “Significant Efflux” value (Caco-2 cell monolayers) does the source give for O=C(Cc1cccc(OC(F)(F)F)c1)Nc1ccc(CCCCc2nnc(NC(=O)C(O)c3cccc(Cl)c3)s2)nn1 (centres unmarked) [Compound 447] here?
The value was “Yes (efflux ratios being significant when greater than or equal to 3 when the Papp (B→A) was greater than or equal to 1×10^−6 cm/s)”.

And the Cmax ([1]; 2% NMP/98% Gelucire, Solution)?
The Cmax was 1130 nM.

What about the Tmax ([1]; 2% NMP/98% Gelucire, Solution) of the same compound?
The Tmax was 1 h.

What about the IC50 (P493-6 (myc "on") cells) of the same compound?
The IC50 was 16 nM.

Which results are given for O=C(Cc1cccc(OC(F)(F)F)c1)Nc1ccc(CCCCc2nnc(NC(=O)Cc3cccc(F)c3)s2)nn1 [Compound 679]?
Significant Efflux (Caco-2 cell monolayers): No; IC50 (P493-6 (myc "on") cells): 36 nM

For O=C(Cc1cccc(OC(F)(F)F)c1)Nc1ccc(CCCCc2nnc(NC(=O)[C@@H](O)c3ccccc3)s2)nn1 [Compound 703], which “Significant Efflux” value (Caco-2 cell monolayers) is on record?
Its value is “Yes (efflux ratios being significant when greater than or equal to 3 when the Papp (B→A) was greater than or equal to 1×10^−6 cm/s)”.

What about the IC50 (P493-6 (myc "on") cells) of the same compound?
Its IC50 is 12 nM.

Which “Significant Efflux” value (Caco-2 cell monolayers) does the source give for O=C(Cc1ccccc1)Nc1ccc(CCCCc2nnc(NC(=O)Cc3ccccc3)s2)nn1 [Compound 295] here?
The value was “Yes (efflux ratios being significant when greater than or equal to 3 when the Papp (B→A) was greater than or equal to 1×10^−6 cm/s)”.

What about the Cmax [1, 3] of the same compound?
Its Cmax is 20 nM.

What about the Tmax [1, 3] of the same compound?
The Tmax was 6 h.

And the IC50 (P493-6 (myc "on") cells)?
Its IC50 is 39 nM.

With CC(C(=O)Nc1ccc(CCCCc2nnc(NC(=O)Cc3cccc(CNC(=O)OC(C)(C)C)c3)s2)nn1)c1ccccc1 (centres unmarked) [Compound 436] as the compound, how does the “Significant Efflux” value (Caco-2 cell monolayers) read?
The value was “Yes (efflux ratios being significant when greater than or equal to 3 when the Papp (B→A) was greater than or equal to 1×10^−6 cm/s)”.

And the IC50 (P493-6 (myc "on") cells)?
Its IC50 is 10 nM.

Which results are given for O=C(Cc1ccccc1Cl)Nc1ccc(CCCCc2nnc(NC(=O)Cc3ccccc3F)s2)nn1 [Compound 533]?
Significant Efflux (Caco-2 cell monolayers): Yes (efflux ratios being significant when greater than or equal to 3 when the Papp (B→A) was greater than or equal to 1×10^−6 cm/s); IC50 (P493-6 (myc "on") cells): 41 nM

Which “Significant Efflux” value (Caco-2 cell monolayers) does the source give for O=C(Cc1ccccc1)Nc1ccc(CCCCc2nnc(NC(=O)Cc3ccccn3)s2)nn1 [Compound 354] here?
Its value is “Yes (efflux ratios being significant when greater than or equal to 3 when the Papp (B→A) was greater than or equal to 1×10^−6 cm/s)”.

And the IC50 (P493-6 (myc "on") cells)?
The IC50 was 47 nM.

For CC(C(=O)Nc1nnc(CCCCc2ccc(NC(=O)Cc3ccccc3)nn2)s1)c1ccccc1 (centres unmarked) [Compound 616], which “Significant Efflux” value (Caco-2 cell monolayers) is on record?
The value was “Yes (efflux ratios being significant when greater than or equal to 3 when the Papp (B→A) was greater than or equal to 1×10^−6 cm/s)”.

And the IC50 (P493-6 (myc "on") cells)?
The IC50 was 130 nM.

Which “Significant Efflux” value (Caco-2 cell monolayers) does the source give for O=C(Cc1cccc(OC(F)(F)F)c1)Nc1ccc(CCCCc2nnc(NC(=O)[C@H](O)c3ccccc3)s2)nn1 [Compound 705] here?
The value was “Yes (efflux ratios being significant when greater than or equal to 3 when the Papp (B→A) was greater than or equal to 1×10^−6 cm/s)”.

What about the IC50 (P493-6 (myc "on") cells) of the same compound?
The IC50 was 32 nM.

For Cn1ccc(CC(=O)Nc2nnc(CCCCc3ccc(NC(=O)Cc4cccc(OC(F)(F)F)c4)nn3)s2)n1 [Compound 687], which IC50 (P493-6 (myc "on") cells) is on record?
The IC50 was 11 nM.

With CC(C)(C)OC(=O)Nc1cccc(CC(=O)Nc2nnc(CCCCc3ccc(NC(=O)Cc4cccc(OC(F)(F)F)c4)nn3)s2)n1 [Compound 724] as the compound, how does the IC50 (P493-6 (myc "on") cells) read?
The IC50 was 34 nM.

Which IC50 (P493-6 (myc "on") cells) does the source give for Nc1cccc(CC(=O)Nc2nnc(CCCCc3ccc(NC(=O)Cc4cccc(OC(F)(F)F)c4)nn3)s2)n1 [Compound 725] here?
The IC50 was 150 nM.

Which IC50 (P493-6 (myc "on") cells) does the source give for O=C(Cc1cccc(OC(F)(F)F)c1)Nc1ccc(CCCCc2nnc(NC(=O)Cc3ccc(F)cc3)s2)nn1 [Compound 661] here?
The IC50 was 120 nM.

Source: patent US10793535B2, “Heterocyclic glutaminase inhibitors” (Calithera Biosciences, Inc., priority 2012, dated 2020)
